US8377974B2 (Millennium Pharmaceuticals, Inc., priority 2004, dated 2013)

target: T1, human plasma protein factor Xa (Homo sapiens, UniProt P00742); test: Factor Xa IC50 determination: cleavage of paranitroanilide substrate S-2765 in 96-well plates; assay type: biochemical; settings: fXa 1 nM, S-2765 100 μM, Tris buffered saline pH 7.4, room temperature
T1 construct: measure proteolytic activity of the enzyme (factor Xa); purchased Haematologic Technologies (Essex Junction, Vt.); host or cells: human plasma
T1 sequence (P00742 235-488 limits assumed): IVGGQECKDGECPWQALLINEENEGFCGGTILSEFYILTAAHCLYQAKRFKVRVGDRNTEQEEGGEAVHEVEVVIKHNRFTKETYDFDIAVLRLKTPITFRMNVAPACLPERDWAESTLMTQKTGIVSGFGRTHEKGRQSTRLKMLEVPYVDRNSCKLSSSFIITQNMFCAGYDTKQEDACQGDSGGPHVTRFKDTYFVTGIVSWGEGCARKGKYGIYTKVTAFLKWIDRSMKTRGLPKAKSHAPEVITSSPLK
T1 sequence (P00742 41-179 partner limits assumed): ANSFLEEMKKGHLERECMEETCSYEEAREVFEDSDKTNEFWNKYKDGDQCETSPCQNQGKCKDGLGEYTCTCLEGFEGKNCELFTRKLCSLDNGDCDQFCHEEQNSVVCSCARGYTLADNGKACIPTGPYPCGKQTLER
Excerpt: This example illustrates methods for evaluating the compounds of the invention, along with results obtained for such assays. The in vitro and in vivo Factor Xa isoform activities of the inventive compounds can be determined by various procedures known in the art, such as a test for their ability to inhibit the activity of the Factor Xa isoform. […] The IC50 value is the concentration (in nM) of the compound required to provide 50% inhibition of Factor Xa isoform.
An in vitro assay for detecting and measuring inhibition activity against Factor Xa is as follows:
The substrate S-2765 (Z-D-Arg-Gly-Arg-pNA.HCl) was obtained from Diapharma (West Chester, Ohio).
The human plasma protein factor Xa was purchased from Haematologic Technologies (Essex Junction, Vt.).
All assays, which are performed in 96-well microtiter plates, measure proteolytic activity of the enzyme (factor Xa) by following cleavage of paranitroanilide substrate. The assay buffer used for proteolytic assays was Tris buffered saline (20 mM Tris, 150 mM NaCl, 5 mM CaCl2, 0.1% Bovine serum albumin (BSA), 5% Dimethly Sulfoxide (DMSO) pH 7.4). In a 96-well microtiter plate, inhibitor was serially diluted to give a range of concentrations from 0.01 nM to 10 μM (final). Duplicate sets of wells were assayed and control wells without inhibitor were included. Enzyme was added to each well, (fXa concentration=1 nM), the plate was shaken for 5 seconds and then incubated for 5 minutes at room temperature. S2765 was added (100 μM final) and the plate was shaken for 5 seconds (final liquid volume in each well was 200 μl). The degree of substrate hydrolysis was measured at 405 nm on a Thermomax plate reader (Molecular Devices, Sunnyvale, Calif.) for 2 minutes. The initial velocities (mOD/min), for each range of inhibitor concentrations, were fitted to a four parameter equation using Softmax data analysis software. The parameter C, derived from the resulting curve-fit, corresponded to the concentration for half maximal inhibition (IC50).

SMILES | IC50
CN1CCN=C1c1ccc(C2=NOC(CNC(=O)c3ccc(Cl)s3)C2)c(N(C)C)c1 (centres unmarked) [Example 75, 5-Chloro-thiophene-2-carboxylic acid {3-[2-dimethylamino-4-(1-methyl-4,5-dihydro-1H-imidazol-2-yl)-phenyl]-4,5-dihydro-isoxazol-5-ylmethyl}-amide] | 100 to 500 nM
CN(C)c1cc(C(=N)N2CCCC2)ccc1C1=NOC(CNC(=O)c2ccc(Cl)s2)C1 (centres unmarked) [Example 76, 5-Chloro-thiophene-2-carboxylic acid {3-[2-dimethylamino-4-(imino-pyrrolidin-1-yl-methyl)-phenyl]-4,5-dihydro-isoxazol-5-ylmethyl}-amide] | 100 to 500 nM
CN(C)C(=N)c1ccc(C2=NOC(CNC(=O)c3ccc(Cl)s3)C2)c(N2CCCC2)c1 (centres unmarked) [Example 78, 5-Chloro-thiophene-2-carboxylic acid {3-[4-(N,N-dimethyl-carbamimidoyl)-2-pyrrolidin-1-yl-phenyl]-4,5-dihydro-isoxazol-5-ylmethyl}-amide] | 100 to 500 nM
CN1CCN=C1c1ccc(C2=NOC(CNC(=O)c3ccc(Cl)s3)C2)c(N2CCCC2)c1 (centres unmarked) [Example 79, 5-Chloro-thiophene-2-carboxylic acid {3-[4-(1-methyl-4,5-dihydro-1H-imidazol-2-yl)-2-pyrrolidin-1-yl-phenyl]-4,5-dihydro-isoxazol-5-ylmethyl}-amide] | 100 to 500 nM
N=C(c1ccc(C2=NOC(CNC(=O)c3ccc(Cl)s3)C2)c(N2CCCC2)c1)N1CCCC1 (centres unmarked) [Example 80, 5-Chloro-thiophene-2-carboxylic acid {3-[4-(imino-pyrrolidin-1-yl-methyl)-2-pyrrolidin-1-yl-phenyl]-4,5-dihydro-isoxazol-5-ylmethyl}-amide] | 100 to 500 nM
N=C(c1ccc(C2=NOC(CNC(=O)c3ccc(Cl)s3)C2)c(N2CCCC2)c1)N1CCCCC1 (centres unmarked) [Example 81, 5-Chloro-thiophene-2-carboxylic acid {3-[4-(imino-piperidin-1-yl-methyl)-2-pyrrolidin-1-yl-phenyl]-4,5-dihydro-isoxazol-5-ylmethyl}-amide] | ≥ 500 nM
CN1CCN=C1c1ccc(C2=NOC(CNC(=O)c3ccc(Cl)s3)C2)c(N2CCOCC2)c1 (centres unmarked) [Example 83, 5-Chloro-thiophene-2-carboxylic acid {3-[4-(1-methyl-4,5-dihydro-1H-imidazol-2-yl)-2-morpholin-4-yl-phenyl]-4,5-dihydro-isoxazol-5-ylmethyl}-amide] | 100 to 500 nM
N=C(c1ccc(C2=NOC(CNC(=O)c3ccc(Cl)s3)C2)c(N2CCOCC2)c1)N1CCCC1 (centres unmarked) [Example 84, 5-Chloro-thiophene-2-carboxylic acid {3-[4-(imino-pyrrolidin-1-yl-methyl)-2-morpholin-4-yl-phenyl]-4,5-dihydro-isoxazol-5-ylmethyl}-amide] | 100 to 500 nM
N=C(c1ccc(C2=NOC(CNC(=O)c3ccc(Cl)s3)C2)c(N2CCOCC2)c1)N1CCCCC1 (centres unmarked) [Example 85, 5-Chloro-thiophene-2-carboxylic acid {3-[4-(imino-piperidin-1-yl-methyl)-2-morpholin-4-yl-phenyl]-4,5-dihydro-isoxazol-5-ylmethyl}-amide] | 100 to 500 nM
COCCN(C)c1cc(C2=NCCN2C)ccc1C1=NOC(CNC(=O)c2ccc(Cl)s2)C1 (centres unmarked) [Example 87] | 100 to 500 nM
COCCN(C)c1cc(C(=N)N2CCCC2)ccc1C1=NOC(CNC(=O)c2ccc(Cl)s2)C1 (centres unmarked) [Example 88, 5-Chloro-thiophene-2-carboxylic acid (3-{4-(imino-pyrrolidin-1-yl-methyl)-2-[(2-methoxy-ethyl)-methyl-amino]-phenyl}-4,5-dihydro-isoxazol-5-ylmethyl)-amide] | 100 to 500 nM

Second part, the compound after the results:

IC50 | SMILES
≤ 100 nM | CC1(CNC(=O)c2ccc(Cl)s2)CC(c2ccc(C(=N)N3CCC3)cc2)=NO1 (centres unmarked) [Example 62, 5-Chloro-thiophene-2-carboxylic acid {3-[4-(azetidin-1-yl-imino-methyl)-phenyl]-5-methyl-4,5-dihydro-isoxazol-5-ylmethyl}-amide]
≤ 100 nM | CC1(CNC(=O)c2ccc(Cl)s2)CC(c2ccc(C(N3CCC3)=[N+]3CCC3)cc2)=NO1 (centres unmarked) [Example 63, 5-Chloro-thiophene-2-carboxylic acid {3-[4-(azetidin-1-yl-azetidin-1-ylidene-methyl)-phenyl]-5-methyl-4,5-dihydro-isoxazol-5-ylmethyl}-amide]
≤ 100 nM | CCN(C)C(=N)c1ccc(C2=NOC(C)(CNC(=O)c3ccc(Cl)s3)C2)cc1 (centres unmarked) [Example 64, 5-Chloro-thiophene-2-carboxylic acid {3-[4-(N-ethyl-N-methyl-carbamimidoyl)-phenyl]-5-methyl-4,5-dihydro-isoxazol-5-ylmethyl}-amide]
≤ 100 nM | CN(C)CCN(C)C(=N)c1ccc(C2=NOC(C)(CNC(=O)c3ccc(Cl)s3)C2)cc1 (centres unmarked) [Example 65, 5-Chloro-thiophene-2-carboxylic acid (3-{4-[N-(2-dimethylamino-ethyl)-N-methyl-carbamimidoyl]-phenyl}-5-methyl-4,5-dihydro-isoxazol-5-ylmethyl)-amide]
100 to 500 nM | COCCN(C)C(=N)c1ccc(C2=NOC(C)(CNC(=O)c3ccc(Cl)s3)C2)cc1 (centres unmarked) [Example 66, 5-Chloro-thiophene-2-carboxylic acid (3-{-4-[N-(2-methoxy-ethyl)-N-methyl-carbamimidoyl]-phenyl}-5-methyl-4,5-dihydro-isoxazol-5-ylmethyl)-amide]
≤ 100 nM | CN(Cc1ccco1)C(=N)c1ccc(C2=NOC(C)(CNC(=O)c3ccc(Cl)s3)C2)cc1 (centres unmarked) [Example 67, 5-Chloro-thiophene-2-carboxylic acid {3-[4-(N-furan-2-ylmethyl-N-methyl-carbamimidoyl)-phenyl]-5-methyl-4,5-dihydro-isoxazol-5-ylmethyl}-amide]
100 to 500 nM | CC1(CNC(=O)c2ccc(Cl)s2)CC(c2ccc(C(=N)N3CCC(C(N)=O)CC3)cc2)=NO1 (centres unmarked) [Example 68, 1-{[4-(5-{[(5-Chloro-thiophene-2-carbonyl)-amino]-methyl}-5-methyl-4,5-dihydro-isoxazol-3-yl)-phenyl]-imino-methyl}-piperidine-4-carboxylic acid amide]
≤ 100 nM | CNC(=N)c1ccc(C2=NOC(C)(CNC(=O)c3ccc(Cl)s3)C2)cc1 (centres unmarked) [Example 69, 5-Chloro-thiophene-2-carboxylic acid {5-methyl-3-[4-(N-methylcarbamimidoyl)-phenyl]-4,5-dihydro-isoxazol-5-ylmethyl}-amide]
≤ 100 nM | CN1CCN=C1c1ccc(-c2cc(CNC(=O)c3ccc(Cl)s3)on2)c(F)c1 [Example 70, 5-Chloro-thiophene-2-carboxylic acid {3-[2-fluoro-4-(1-methyl-4,5-dihydro-1H-imidazol-2-yl)-phenyl]-isoxazol-5-ylmethyl}-amide]
≤ 100 nM | N=C(c1ccc(-c2cc(CNC(=O)c3ccc(Cl)s3)on2)c(F)c1)N1CCCC1 [Example 71, 5-Chloro-thiophene-2-carboxylic acid {3-[2-fluoro-4-(imino-pyrrolidin-1-yl-methyl)-phenyl]-isoxazol-5-ylmethyl}-amide]
≤ 100 nM | N=C(c1ccc(-c2cc(CNC(=O)c3ccc(Cl)s3)on2)c(F)c1)N1CCCCC1 [Example 72, 5-Chloro-thiophene-2-carboxylic acid {3-[2-fluoro-4-(imino-piperidin-1-yl-methyl)-phenyl]-isoxazol-5-ylmethyl}-amide]
100 to 500 nM | CN(C)C(=N)c1ccc(C2=NOC(CNC(=O)c3ccc(Cl)s3)C2)c(N(C)C)c1 (centres unmarked) [Example 74, 5-Chloro-thiophene-2-carboxylic acid {3-[2-dimethylamino-4-(N,N-dimethyl-carbamimidoyl)-phenyl]-4,5-dihydro-isoxazol-5-ylmethyl}-amide]
≤ 100 nM | CN(C)c1cc(C(=N)N2CCCCC2)ccc1C1=NOC(CNC(=O)c2ccc(Cl)s2)C1 (centres unmarked) [Example 77, 5-Chloro-thiophene-2-carboxylic acid {3-[2-dimethylamino-4-(imino-piperidin-1-yl-methyl)-phenyl]-4,5-dihydro-isoxazol-5-ylmethyl}-amide]
≤ 100 nM | CN(C)C(=N)c1ccc(C2=NOC(CNC(=O)c3ccc(Cl)s3)C2)c(N2CCOCC2)c1 (centres unmarked) [Example 82, 5-Chloro-thiophene-2-carboxylic acid {3-[4-(N,N-dimethyl-carbamimidoyl)-2-morpholin-4-yl-phenyl]-4,5-dihydro-isoxazol-5-ylmethyl}-amide]
≤ 100 nM | COCCN(C)c1cc(C(=N)N(C)C)ccc1C1=NOC(CNC(=O)c2ccc(Cl)s2)C1 (centres unmarked) [Example 86, 5-Chloro-thiophene-2-carboxylic acid (3-{4-(N,N-dimethyl-carbamimidoyl)-2-[(2-methoxy-ethyl)-methyl-amino]-phenyl}-4,5-dihydro-isoxazol-5-ylmethyl)-amide]
